Patent US11099177B2, “Protein kinase allostery sensor and methods of making and using same” (REGENTS OF THE UNIVERSITY OF MINNESOTA, priority 2016, dated 2021)
Positions count from the first letter of the chain named.

How the values were obtained:
Aurora A (AurA) [1] = target: T1, Aurora A (AurA) (Homo sapiens, UniProt O14965, C290S/C393S/L225C/T287C); assay: Time-resolved FRET ligand titration with labeled AurA (Example 1); format: binding; details: TR-FRET, ligand added to labeled AurA
T1 construct: human Aurora A, residues 122-403, containing an N-terminal hexahistidine tag; hexahistidine (N); made in house; host or cells: E. coli BL21-DE3-RIL
T1 sequence (O14965 122-403 L225C/T287C/C290S/C393S): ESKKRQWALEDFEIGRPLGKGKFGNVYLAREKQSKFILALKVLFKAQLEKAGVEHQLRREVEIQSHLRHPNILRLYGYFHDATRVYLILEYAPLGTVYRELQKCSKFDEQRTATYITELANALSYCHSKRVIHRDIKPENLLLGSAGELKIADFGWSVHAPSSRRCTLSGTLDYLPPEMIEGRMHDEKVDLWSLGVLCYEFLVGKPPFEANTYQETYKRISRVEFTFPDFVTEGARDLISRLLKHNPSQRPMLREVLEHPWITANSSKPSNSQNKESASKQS
Procedure: Direct waveform recording experiments were performed in a 384 well plate, and measurement was performed using a NovaFluor fluorescence lifetime plate reader (Fluorescence Innovations, Inc., Minneapolis, Minn.). […] Experiments were performed at 50 nM AurA in ADP Quest Assay buffer+1% DMSO.
TCSPC experiments were performed using a spectrometer built by the group of Dr. David D. Thomas. […] Experiments were performed at 100 nM to 200 nM AurA in ADP Quest Assay buffer+1% DMSO.

Aurora A (AurA) [2] = assay: Steady-state FRET ligand titration with FRET-labeled AurA; format: binding, human; details: apo AurA, Alexa 488/Alexa 568
Procedure: (§1) ADP stocks (Sigma-Aldrich Corporation, St. Louis, Mo.) were dissolved at 100 mM in 1 M HEPES pH 7.5 and stored at −20° C.
(§2) Samples were excited at 490 nm and fluorescence emission was recorded 510 nm to 750 nm.
(§3) Ligand binding data were visualized and analyzed using Microsoft Excel and Origin software. FRET was calculated using the equation E=1−(DA/D), where E is the efficiency of FRET, DA is the fluorescence of the AurA+D+A sample, and D is the fluorescence of the corresponding AurA+D control sample.

Aurora A (AurA) [3] = target: T2, Aurora A (AurA) (Homo sapiens, UniProt O14965, C290S/C393S/L225C/S284C); assay: as above; format: binding; details: ligand added to apo AurA, calculated from published R0
T2 construct: human Aurora A, residues 122-403, containing an N-terminal hexahistidine tag; hexahistidine (N); made in house; host or cells: E. coli BL21-DE3-RIL
T2 sequence (O14965 122-403 L225C/S284C/C290S/C393S): T1 sequence (O14965 122-403 L225C/T287C/C290S/C393S) with S163C, C166T
Procedure: as §1, §2, §3

Aurora A (AurA) [4] = assay: Time-resolved FRET lifetime assay, AurA biosensor labeled at L225C/S284C, 384-well plates; details: for DFG-In/DFG-Out state of AurA on inhibitor binding / inter-probe distance: 5 μM inhibitor; for DFG-In/DFG-Out state of AurA on inhibitor binding: samples lacking TPX2; for inter-probe distance: samples lacking TPX2 (phosphorylated and unphosphorylated AurA)
Aurora A (AurA) [5] = target: T3, Aurora A (AurA) (Homo sapiens, UniProt O14965, C290S/C393S/L225C/S284C); assay: as above; details: 5 μM inhibitor, unphosphorylated AurA bound to TPX2
T3 sequence (O14965 122-403 L225C/S284C/C290S/C393S): T1 sequence (O14965 122-403 L225C/T287C/C290S/C393S) with S163C, C166T
T3 sequence (Q9ULW0 1-43 partner): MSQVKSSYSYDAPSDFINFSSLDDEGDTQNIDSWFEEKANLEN

AurA = target: T4, AurA (Homo sapiens, UniProt O14965); details: FIG. 11; cited from earlier work
T4 sequence (O14965 1-403): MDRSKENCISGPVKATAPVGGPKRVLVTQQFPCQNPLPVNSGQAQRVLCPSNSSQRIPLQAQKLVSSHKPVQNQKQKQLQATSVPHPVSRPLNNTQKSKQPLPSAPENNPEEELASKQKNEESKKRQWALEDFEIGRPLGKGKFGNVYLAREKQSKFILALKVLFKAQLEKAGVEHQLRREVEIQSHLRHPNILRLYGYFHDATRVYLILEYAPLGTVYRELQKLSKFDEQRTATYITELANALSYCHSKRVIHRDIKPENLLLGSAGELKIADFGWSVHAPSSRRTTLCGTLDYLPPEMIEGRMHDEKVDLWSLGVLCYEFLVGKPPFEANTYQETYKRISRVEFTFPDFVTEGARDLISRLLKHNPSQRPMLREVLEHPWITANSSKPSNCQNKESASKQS

p53-altered liver cancer = details: mice; cited from earlier work
[6] = tested on: interaction between AurA and the oncoprotein MYC; details: cited from earlier work

DFG-In/DFG-Out state of AurA on inhibitor binding (Aurora A (AurA) [4]) | Compound | change in FRET on addition of ligand (Aurora A (AurA) [2]) | inter-probe distance (Aurora A (AurA) [4]) | further results
DFG-Out state | CO[C@@H](C(=O)N1Cc2n[nH]c(NC(=O)c3ccc(N4CCN(C)CC4)cc3)c2C1)c1ccccc1 [Danusertib] |  | ~30 Å | inter-probe distance relative to DFG-In compounds (Aurora A (AurA) [5]): slightly shorter distances; AurA state in the X-ray structure with bound inhibitor (AurA): DFG-Out state
DFG-Out state | O=C(O)c1ccc(Nc2ncc3c(n2)-c2ccc(Cl)cc2C(c2c(F)cccc2F)=NC3)cc1 [MLN-8054] |  |  | treatment outcome (p53-altered liver cancer): successful treatment; effect on the AurA-MYC interaction [6]: disrupt; AurA state in the X-ray structure with bound inhibitor (AurA): DFG-Out state
DFG-In state | CCc1cccc(CC)c1NC(=O)N1Cc2n[nH]c(NC(=O)c3ccc(N4CCN(C)CC4)cc3)c2C1 [PHA-680632] |  | long distances | 
DFG-In state | COc1cc(N2CCC(N3CCN(C)CC3)CC2)ccc1Nc1ncc(Cl)c(Nc2ccccc2S(=O)(=O)C(C)C)n1 [TAE-684] |  | long distances | 
DFG-Out state | Cc1cc(Nc2cc(N3CCN(C)CC3)nc(Sc3ccc(NC(=O)C4CC4)cc3)n2)n[nH]1 [VX-680] | no observable change | ~30 Å | 

Continued, compound first:

Compound | DFG-In/DFG-Out state of AurA on inhibitor binding (Aurora A (AurA) [4]) | change in FRET on addition of ligand (Aurora A (AurA) [2]) | inter-probe distance (Aurora A (AurA) [4]) | further results
Nc1ncnc2c1ncn2[C@@H]1O[C@H](COP(=O)(O)OP(=O)(O)O)[C@@H](O)[C@H]1O [ADP] |  | reduce FRET |  | change in average fluorescence lifetime (Aurora A (AurA) [1]): increase in average fluorescence lifetime; increase in population average R (donor-acceptor distance) (Aurora A (AurA) [3]): approximately 3 Å
O=C(Nc1cccc(Cl)c1)Nc1ncc(CCNc2ncnc3ccsc23)s1 [SNS-314] |  |  | long distances | 
TPX2: AurA-specific activator peptide, synthetic construct of human TPX2 residues 1-43 (MSQVKSSYSYDAPSDFINFSSLDDEGDTQNIDSWFEEKANLEN; UniProt Q9ULW0 1-43, looked up, fragment) |  | reduces FRET |  | width of the distance distribution (full width at half maximum) (Aurora A (AurA) [4]; in the presence of TPX2, no inhibitor): narrow significantly; inter-dye distance (Aurora A (AurA) [4]; in the presence of TPX2, no inhibitor, unphosphorylated and phosphorylated samples (approximately 30 Å without TPX2)): approximately 50 Å
